# Test results: US20250244310A1, “METHODS OF IDENTIFICATION AND TARGETING OF MASTER KINASES IN CANCER” (The Trustees of Columbia University in the City of New York, priority 2022, published 2025)
# Experiments:
# [1] = test system: AKT-ser-473 and STAT3-tyr-705 phosphorylation; assay: Western blot of GPM PDO cells treated with BJE6-106; format: cell-based, human; settings: BJE6-106 at 50 µM, time course, FIG. 5d
# From the text: (§1) V9131), and j-actin 1:10,000 (Sigma, no. A5441).
# GPM PDO cells = assay: Colony-forming (clonogenic) assay of GPM PDO cells treated with BJE6-106; format: cell-based, human; settings: FIG. 5c
# Procedure: Cell growth and clonogenic assay. Time course analysis of the cellular growth of shPRKCD infected PDOs or the empty vector was performed by plating 4,500 cells per well in 96-well plates. Viability was determined using CellTiterGlo assay reagent (Promega, G7570) and the GloMax-Multi+ Microplate Multimode Reader (Promega). Data are mean±s.d. of five replicates, and experiments were repeated twice. For clonogenic assay of PDO cells treated with increasing concentration of BJE6-106, 1,500 cells were plated in 6-well plates in triplicate. Cells were fixed in methanol and stained with crystal violet 2 weeks later. Colonies with more than 50 cells were scored. Data are mean±s.d. of triplicate observations from one representative experiment. Experiments were repeated twice.
# LUSC cell lines = assay: DepMap menadione survival ratio, LUSC cell lines; format: cell-based; settings: 71 LUSC cell lines from DepMap; p=0.076
# From the text: (§2) We used the BRCA and LUSC cell lines cohorts from DepMap for which both RNA-Seq expression and menadione survival ratio from PRISM Repurposing Primary Screen were available (n=26 for BRCA and n=71 for LUSC)^94. For each cell line, we used the transcriptomic profile to calculated the NES of the four functional GBM subtypes by MWW-GST using gene signatures obtained from the analysis of TCGA samples. Each cell line was classified according the highest subtype activity (NES). We assessed the difference in survival ratio between the mitochondrial cell lines and the others using two-sided Student t-test, unequal variance.
# BRCA cell lines = assay: DepMap menadione survival ratio, BRCA cell lines; format: cell-based; settings: 26 BRCA cell lines from DepMap; p=0.008
# From the text: as §2
# [2] = test system: phosphorylation of serine-343 of NBS1 and serine-824 of KAP1; assay: Western blot of PPR PDO cells, irradiation plus nedisertib: double-strand break markers; format: cell-based, human; settings: PPR PDOs, until 24 hours after irradiation, FIG. 5l
# From the text: as §1
# GPM PDOs = assay: Irradiation-drug combination viability, GPM PDOs; format: cell-based, human; settings: eight GPM PDOs; FIG. 5k
# Procedure: (§3) Cells were cultured in DMEM/F12 medium supplemented with N-2, B-27, EGF and FGF. Cells were plated in 130 μl in opaque white 96-well plates. Twenty-four hrs later cells were treated with 3-fold serial dilutions of compounds as indicated in six replicates for 72 hrs. Viability was determined using CellTiterGlo assay reagent (Promega, G7570) and GloMax-Multi+ Microplate Multimode Reader (Promega). For the irradiation-drug combination treatment, PDOs cells were plated in 96 well plates 24 hrs before treatment. Cells were treated with 3-fold serial dilutions of M3814 two hrs before exposure to various irradiation doses (2, 4, 8 Gy at 0.7 Gy/min) from a ^137Cs source (GammaCell 40 irradiator, Teratronics). Mock irradiated cells were cultured in parallel. Viability was determined 96 hrs later using CellTiterGlo assay reagent (Promega, G7570) and GloMax-Multi+ Microplate Multimode Reader (Promega). Data are mean±s.d. of the viability ratio from 6 observations in 8 PPR and 8 GPM PDOs. Experiments were performed at least twice with similar results. Clonogenic assays for the evaluation of irradiation-drug combination were performed in 96 well plates. Each experimental point was plated in 3 independent 96 well plates. The number of wells containing PDO spheres were scored and the value of control untreated cell was considered 100% clonogenicity for the specific PDO. […]
# PPR and GPM PDOs = assay: Clonogenic assay for irradiation-drug combination; format: cell-based, human; settings: two PPR and GPM PDOs, irradiation plus nedisertib; FIG. 15b
# Procedure: as §3
# [3] = test system: serine-2056 phosphorylation of DNA-PKcs; settings: irradiated PPR PDO cells; FIG. 5l
# Procedure: Cells were lysed in RIPA buffer (50 mM Tris-HCl pH 7.5, 150 mM NaCl, 1 mM EDTA, 1% NP40, 0.5% sodium dexoycholate, 0.1% sodium dodecyl sulfate, 1.5 mM Na3VO4, 50 mM sodiumfluoride, 10 mM sodium pyrophosphate, 10 mM β-glycerolphosphate and EDTA-free protease inhibitor cocktail; Roche). Lysates briefly sonicated, cleared by centrifugation at 15,000 r.p.m. for 15 min at 4° C., separated by SDS-polyacrylamide gel electrophoresis and transferred to polyvinylidene difluoride membrane. Membranes were blocked in Tris-buffered saline with 5% nonfat milk and 0.1% Tween 20 and probed with primary antibodies overnight at 4° C. Antibodies0 and concentrations were as follows: p-DNA-PK 1:1,000 (Ser2056, CST, #68716), DNA-PK 1:1,000 (CST, #38168), p-NBS1 1:1,000 (Ser343, CST, #3001), NBS1 1:1,000 (CST, #81234), p-KAP1 1:1,000 (Ser824, Abcam, ab133440), KAP1 1:1,000 (Abcam, ab109287), p-CHK1 (Ser317, CST, #12302), CHK1 (CST, #2360), p-PKCδ 1:1,000 (Tyr311, CST, #20555), PKCδ 1:1,000 (CST, #96165), p-STAT3 1:1,000 (Tyr705, CST, #91455), STAT3 1:1,000 (CST, #49045) p-AKT 1:1,000 (Ser473, CST, #40605), p-AKT 1:1,000 (Thr308, CST, #13038S), AKT 1:1,000 (CST, #49615), p-ERK1/2 1:1,000 (Thr202/Tyr204, CST, #4370), ERK1/2 1:1,000 (CST, #9102), GAPDH 1:10,000 (Abcam, ab9484), Vinculin 1:10,000 (Sigma, no. V9131), and j-actin 1:10,000 (Sigma, no. A5441). […]
# γH2AX foci = assay: Immunofluorescence analysis of γH2AX foci in PPR PDO cells; format: cell-based, human; settings: IR 4 Gy plus nedisertib 556 nM, 0-24 hr, FIG. 5m
# Procedure: Cells were fixed with 4% paraformaldehyde, permeabilized with cold methanol for 90 seconds at 4° C., and blocked with 5% BSA, 0.05% Triton X-100 in PBS for 30 minutes. Cells were exposed to primary antibody phospho-H2AX 1:500 (S139, CST, #2577) for one hour at room temperature followed by Cy3-conjugated anti rabbit (Invitrogen, A10520) for one hour at room temperature. Nuclei were stained with DAPI (Sigma). Images were acquired using a Nikon Ti Eclipse inverted microscope for spinning-disk confocal microscopy equipped with a Plan Apochromat 60× oil/1.4 NA DIC objective. Counting of TH2AX foci in individual nuclei were analyzed by ImageJ (NIH, Bethesda, USA) by specific in-built find Maxima>Prominence>Point Selection plug-in. Minimum 50 nuclei in at least ten representative images were included for analysis in each treatment group.
# PPR GBM PDOs = assay: Irradiation-drug combination viability, PPR PDOs; format: cell-based, human
# Procedure: as §3
# [4] = test system: phosphorylation of PKCδ on tyr-311; assay: Western blot of GPM PDOs incubated with IGF-I, IGF-II or insulin; format: cell-based, human; settings: IGF-I 10 ng/ml, IGF-II 10 ng/ml, insulin 100 ng/ml, FIGS. 14b, c
# From the text: as §1
molecule,measurement,setting,value
CC1(C)C=Cc2cc(CCn3c4ccccc4c4ccccc43)cc(C=O)c2O1 [BJE-10676],AKT-ser-473 and STAT3-tyr-705 phosphorylation,[1],time-dependent decrease of AKT-ser-473 and STAT3-tyr-705 phosphorylation
same,colony formation,GPM PDO cells,dose-dependent inhibition of colony formation
CC1=CC(=O)c2ccccc2C1=O [menadione],"menadione survival ratio, difference between mitochondrial cell lines versus the others, log2(FC)",LUSC cell lines,−0.63
same,"menadione survival ratio, difference between mitochondrial cell lines versus the others, log2(FC)",BRCA cell lines,−1.31
COc1ccc([C@@H](O)c2cc(-c3ncnc4cc(N5CCOCC5)ccc34)c(F)cc2Cl)nn1 [nedisertib],phosphorylation of serine-343 of NBS1 and serine-824 of KAP1 (unrepaired DNA damage),[2],sustained phosphorylation of serine-343 of NBS1 and serine-824 of KAP1
same,effect of nedisertib-IR combination on viability,GPM PDOs,virtually ineffective
same,radiosensitivity by clonogenic assay,PPR and GPM PDOs,confirmed these results
same,serine-2056 phosphorylation of DNA-PKcs,[3],inhibited serine-2056 phosphorylation of DNA-PKcs
same,number of γH2AX foci,γH2AX foci,remained elevated throughout the course of the experiment
same,"tumor cell viability, nedisertib-IR combination compared to each individual treatment","PPR GBM PDOs; eight PPR GBM PDOs, FIG. 5k",marked reduction of tumor cell viability
same,radiation dose enhancement factor (DEF),"PPR GBM PDOs; six of the eight PPR PDOs, even at the lowest concentrations of nedisertib",> 2
IGF1: growth factor used to stimulate GPM PDOs (10 ng/ml),phosphorylation of PKCδ on tyr-311,[4],induced phosphorylation of PKCδ on tyr-311
IGF2: growth factor used to stimulate GPM PDOs (10 ng/ml),phosphorylation of PKCδ on tyr-311,[4],induced phosphorylation of PKCδ on tyr-311
insulin: hormone used to stimulate GPM PDOs (100 ng/ml),phosphorylation of PKCδ on tyr-311,[4],induced phosphorylation of PKCδ on tyr-311
